Results taken from the NIST ThermoML archive (doi:10.1016/j.jct.2019.02.019).

Assay: xn = mol fraction of the nth substance listed
Conditions: 101 kPa, Liquid; for viscosity: Capillary tube (Ostwald / Ubbelohde) method; for mass density: Vibrating tube method

CN(CCO)CCO [N-methyldiethanolamine] + CCO
Conditions	mass density, 293.15 K [kg/m3]	mass density, 303.15 K [kg/m3]	mass density, 313.15 K [kg/m3]	mass density, 323.15 K [kg/m3]	viscosity, 293.15 K [mPa·s]	viscosity, 303.15 K [mPa·s]	viscosity, 313.15 K [mPa·s]	viscosity, 323.15 K [mPa·s]
x1 = 0.1003	838.89	830.03	820.48	812.93	1.95	1.54	1.27	1.03
x1 = 0.2001	879.56	869.79	860.28	852.57	3.25	2.45	1.94	1.52
x1 = 0.3001	913.83	903.04	893.56	885.65	5.36	3.88	2.95	2.25
x1 = 0.3998	941.42	930.67	921.43	913.45	8.77	6.08	4.5	3.32
x1 = 0.5	964.94	954.51	945.44	937.39	14.09	9.41	6.64	4.79
x1 = 0.5999	984.81	974.63	965.86	957.92	21.94	14.14	9.68	6.79
x1 = 0.7	1001.91	992.31	983.56	975.64	33.37	20.8	13.69	9.4
x1 = 0.8001	1016.76	1007.51	999.13	991.3	49.36	29.56	18.85	12.44
x1 = 0.9005	1029.58	1020.96	1012.93	1005.16	72.94	41.84	25.38	16.52
x1 = 1	1040.5	1032.6	1024.76	1017.12	103.04	57.28	33.94	21.31

CN(CCO)CCO [N-methyldiethanolamine] + NCCO
Conditions	mass density, 293.15 K [kg/m3]	mass density, 303.15 K [kg/m3]	mass density, 313.15 K [kg/m3]	mass density, 323.15 K [kg/m3]	viscosity, 293.15 K [mPa·s]	viscosity, 303.15 K [mPa·s]	viscosity, 313.15 K [mPa·s]	viscosity, 323.15 K [mPa·s]
x1 = 0.1001	1021.71	1013.23	1005.13	997.1	32.9	19.84	12.83	8.4
x1 = 0.2006	1025.79	1017.39	1009.3	1001.26	43.27	25.18	15.97	10.48
x1 = 0.3	1029.07	1020.72	1012.66	1004.69	52.78	30.53	18.92	12.49
x1 = 0.3998	1031.69	1023.42	1015.36	1007.45	62.64	35.8	21.86	14.3
x1 = 0.4994	1033.82	1025.62	1017.61	1009.72	71.4	40.6	24.53	15.83
x1 = 0.5997	1035.58	1027.46	1019.48	1011.68	79.47	45.11	26.97	17.35
x1 = 0.6977	1037.09	1029.04	1021.11	1013.34	86.28	48.61	29.05	18.6
x1 = 0.7996	1038.43	1030.43	1022.52	1014.79	92.9	52.06	30.87	19.64
x1 = 0.8995	1039.57	1031.61	1023.72	1016.04	98.21	54.8	32.88	20.56
x1 = 1	1040.5	1032.6	1024.76	1017.12	103.04	57.28	33.94	21.31
